Measurements taken from PMC12645137 (Current Neuropharmacology, 2025).

Legend:
DPPH antioxidant assay = assay type: physicochemical; conditions: for % Inhibition (DPPH free radicals): mean ± SEM
Experimental: To evaluate the in-vitro antioxidant potential of the synthesized derivatives, a previously reported 1,1 Diphenyl, 2 Picrylhydrazyl (DPPH) assay was utilized. The DPPH solution was prepared by dissolving twenty-four mg DPPH in methanol (100 ml). Test sample solutions in various concentrations (62.50 to 1000 μg/mL) were also prepared. From each dilution, 1 ml sample solution was taken to which 1 ml solution of DPPH was added. The solution mixture was incubated at 23°C for 30 minutes in the dark and then subjected to a UV-visible spectrophotometer to note the absorbance at 517 nm. The absorbance values of all samples were taken in triplicate. Ascorbic acid served as positive control, while negative control only contained a solution of DPPH having no test samples. The % free radical scavenging potential of our compounds was determined by the given formula.
% free radical scavenging activity = [drawing 2] x100
X is the control absorbance, whereas X1 is the absorbance of the test sample.

[1] = tested on: scopolamine-induced amnesic mice; experiment: Y-Maze test in scopolamine-induced amnesic animals; assay type: in vivo, albino mice; conditions: scopolamine 1 mg/kg amnesic mice, i.p., AN-1 10 mg/kg, progesterone 10 mg/kg, galantamine 8 mg/kg, disease group 22.27%
Experimental: The mice were divided into the following five groups, and each group had six animals. The standard drug and test samples were carefully administered to the mice via the intraperitoneal route.
Group IV (Progesterone treated group) = Animals treated with 10 mg/kg progesterone and scopolamine 1 mg/kg.
Group V (Test compound group) = Animals received 10 mg/kg progesterone derivative (AN-1) and 1 mg/kg scopolamine.
To determine the effect of synthesized compounds on short-term learning and memory of experimental mice, a Y-Maze test was used. The Y-Maze apparatus consists of three arms that are fixed at 120° angle from each other and have 30 cm length, 20 cm height, and 8 cm width dimensions. After 30 minutes of giving test compounds intraperitoneally, the mouse was positioned at the arm end in such a way that it faced away from the midpoint of the apparatus and was permitted to search the apparatus for five minutes freely. The arm entry sequence and number by each mouse were recorded for 5 minutes using a digital camera. Alternation is defined as the successive entry into 3 dissimilar arms by a mouse (i.e., CBA, BCA, ABC). When the back paws of a mouse were found inside an arm wholly, the arm entry was considered completed. Seventy percent v/v ethanol was used for cleaning the apparatus and to avoid smell cues. The spontaneous alternation performance (SAP) percentage was calculated using the following formula [37]:
% alternation = [(alternations number) / (total arm entries number – 2)] × 100

In the case of `COc1ccc(C/N=C(/C)[C@H]2CC[C@H]3[C@@H]4CCC5=CC(=O)CC[C@]5(C)[C@H]4CC[C@]23C)cc1` [AN1, (8S,9S,10R,13S,14S)-17-((Z)-1-((4-methoxybenzyl)imino)ethyl)-10,13-dimethyl-1,2,6,7,8,9,10,11,12,13,14,15,16,17-tetradecahydro-3H-cyc-lopenta[a]phenanthren-3-one], the IC50 (DPPH antioxidant assay) is reported as 57.2 µM, the “% Inhibition (DPPH free radicals)” value (DPPH antioxidant assay; 62.5 µg/ml) is reported as 56.46 ± 1.12% and the “% Inhibition (DPPH free radicals)” value (DPPH antioxidant assay; 125 µg/ml) is reported as 67.64 ± 3.04%. The “% Inhibition (DPPH free radicals)” value (DPPH antioxidant assay; 250 µg/ml) was 70.00 ± 3.95%, the “% Inhibition (DPPH free radicals)” value (DPPH antioxidant assay; 500 µg/ml) was 76.15 ± 2.31% and the “% Inhibition (DPPH free radicals)” value (DPPH antioxidant assay; 1000 µg/ml) was 83.37 ± 2.03%. It also gave a spontaneous alternation [1] of 42.72 ± 9.41% and a spontaneous alternation ([1]; listed as AN-1) of 42.72%.
